Assay results from patent publication US20240226056A1, “Sleep or Post-Sleep Performance” (Vanda Pharmaceuticals Inc., priority 2018, published 2024).
Entries after “also recorded” stand apart in the source; their conditions may differ.

Columns and labels:
[1] = from prescribing information; cited from earlier work
[2] = Tasimelteon jet lag disorder (JLD) clinical program; format: in vivo, human; conditions: individuals experiencing circadian advances of five to eight hours
[3] = 10 mg, 20 mg, 50 mg and 100 mg daily doses; 5-hour advance in sleep-wake cycle; cited from earlier work
[4] = preclinical models of acute phase-shifting and chronic re-entrainment; cited from earlier work
[5] = Next-day driving performance on the CRCDS automobile driving simulator after a bedtime dose; format: in vivo, human; conditions: bedtime dose tasimelteon 20 mg or zopiclone 7.5 mg
Description: In this study, 48 healthy volunteers operate an automobile driving simulator the moming after being administered a bedtime dose of tasimelteon 20 mg, zopiclone 7.5 mg, or placebo. Volunteers are instructed to operate the driving simulator for about one hour with a speed of 55 mph while maintaining lane position.
Driving performance is assessed by a number of validated measures, including standard deviation from lateral position (SDLP), a measure of lane weaving.
An SDLP of 4.4 cm as compared to control is considered equivalent to the driving impairment associated with a blood alcohol content (BAC) of 0.05%, the threshold for drunk driving in many countries.

For Cc1ccc(-n2nccn2)c(C(=O)N2CCN(c3nc4cc(Cl)ccc4o3)CC[C@H]2C)c1 [BELSOMRA], the “driving performance in clinical studies (in words)” value [1] is listed as “clinically meaningful impaired driving performance in some subjects”.
In the case of CCC(=O)NC[C@@H]1C[C@H]1c1cccc2c1CCO2 [tasimelteon], the “benefit in jet lag disorder (in words)” value [2] is listed as “significant benefits”, the “shifting dim light melatonin onset and sleep efficacy relative to placebo (in words)” value [3] is listed as “positive outcomes” and the “chronobiotic activity (in words)” value [4] is listed as “potent chronobiotic activity”.
With CN1CCN(C(=O)OC2c3nccnc3C(=O)N2c2ccc(Cl)cn2)CC1 (stereo not drawn) [zopiclone] the “SDLP Difference (least squares means) vs Placebo” value ([5]; 48 healthy volunteers, driving simulator 9 hours post-dose, about one hour at 55 mph) was 4.14 cm and the “next-day driving impairment compared to placebo (in words)” value ([5]; evaluated nine hours after dosing) was “does significantly impair driving ability; also recorded: meaningful and significant effect on lane weaving”.
